The source of these data is paper PMC12101129, “An optimized CYP3A4-activatable fluorogenic sensor for in situ functional imaging and multi-dimensional inhibitor assessment” (Chemical Science, 2025).

Each structure is given as a SMILES string. Read-outs that look alike come from different tables or passages of the source.

Data set [1] is described as follows: Phase II metabolic stability in HLMs. The data set is classed as in vitro ADME. The note with it: human, liver microsomes, read-out: phase II metabolic stability t1/2. On the technique in general: Liver microsomes are vesicles of endoplasmic reticulum, rich in cytochrome P450 enzymes.
Data set [2] deals with T1, NCN 4-hydroxylation in HLMs (Homo sapiens, UniProt P08684).
T1 construct: tissue Bioreclamation IVT lot No. X008067; host or cells: pooled human liver microsomes from 50 donors
T1 sequence (P08684 whole entry): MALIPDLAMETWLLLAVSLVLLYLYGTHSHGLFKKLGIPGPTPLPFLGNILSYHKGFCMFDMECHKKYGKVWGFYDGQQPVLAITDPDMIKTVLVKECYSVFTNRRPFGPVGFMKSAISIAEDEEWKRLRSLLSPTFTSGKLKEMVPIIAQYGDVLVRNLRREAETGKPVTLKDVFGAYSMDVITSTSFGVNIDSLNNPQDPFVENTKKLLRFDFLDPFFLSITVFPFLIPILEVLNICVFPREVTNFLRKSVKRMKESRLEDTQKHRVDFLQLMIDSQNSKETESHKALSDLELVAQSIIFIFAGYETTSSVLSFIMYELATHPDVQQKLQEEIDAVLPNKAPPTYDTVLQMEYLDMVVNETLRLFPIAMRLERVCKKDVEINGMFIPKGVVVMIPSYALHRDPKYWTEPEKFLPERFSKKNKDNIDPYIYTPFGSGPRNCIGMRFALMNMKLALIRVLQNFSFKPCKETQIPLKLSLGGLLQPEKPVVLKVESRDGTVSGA
The data set is described as follows: Chemical inhibition assays of NCN 4-hydroxylation in HLMs. It counts as biochemical.
Experimental: P450 reaction phenotyping and chemical inhibition assays
P450 reaction phenotyping analysis of NCN was determined using a panel of human recombinant cytochrome P450 enzymes, while the inhibitory effects of CYP specific inhibitors on NCN 4-hydroxylation in HLMs were assessed. The final concentration of each human recombinant CYP enzyme in the incubation system was 5 nM.

Data set [3] concerns Hep3B cells. The experiment in a line: CCK-8 cytotoxicity assay. The data set is classed as cell-based. Background: Tetrazolium dyes change colour on reduction, which living cells bring about.
Data set [4] addresses T2, human P-glycoprotein (Homo sapiens, UniProt P08183).
T2 construct: expressed in transfected cells; host or cells: MDR1-MDCK
The data set is described as follows: P-gp transporter assay in MDR1-MDCK cells with or without verapamil. The note with it: for intracellular level in the presence of verapamil: MDR1-MDCK cells, with versus without verapamil. It counts as in vitro ADME. As for the experimental part:
1.10. P-gp transporter assay
To test whether NCN is pumped extracellularly by P-gp, MDR1-MDCK cells (a transfected cell line overexpressing human P-glycoprotein) were seeded in 96-well plates supplemented with DMEM media with 10% FBS. Then, verapamil (a potent P-gp inhibitor, 100 μL) was added to 96-well plates and cultured for 15 min. After that, the cells were treated with NCN/Rhodamine 123 (100 μL) for 2 h. The cells were collected and washed with PBS, and lysed by 200 µL ice-cold acetonitrile. Next, the cell supernatant was collected by centrifugation at 20,000 g, 4 °C for 30 min. The content of NCN in the cells was determined. […]

Data set [5] can be described thus: Effect of pH on fluorescence response of HNCN. The data set is classed as physicochemical.
Data set [6] is described as follows: In vivo inhibitory effect of ketoconazole on NCN pharmacokinetics. As to conditions: rats; for AUC(0-inf) / Cmax / half-life: rat, plasma, po, 20 mg/kg, NCN 20 mg/kg i.g. Here is the method: Twelve rats were randomly divided into two groups (CMC-Na + NCN group, […]
ketoconazole + NCN group).
50 mg/kg, respectively. Firstly, blank blood samples were collected. Then, ketoconazole or CMC-Na (control group) was administered orally. After 30 min, NCN was administered orally and blood samples were collected at the following time points […]
5-fold volume of acetonitrile.
1.21. Statistical analysis
All data are expressed as the mean ± standard deviation. The Km, Vmax, and IC50 values were determined via non-linear regression analysis using GraphPad Prism software. All statistical analyses were carried out using GraphPad Prism software (GraphPad Prism 8.0), and Origin (2025).

Data set [7] has as its system Hep3B cells. The data set is described as follows: Cell-membrane permeability assay in Hep3B cells. It counts as in vitro ADME. As to conditions: 20 μM, 1 h. As for the experimental part: 1.9. Cell-membrane permeability assay
Hep3B cells were cultured with the DMEM media supplemented with 10% fetal bovine serum (FBS) in a humidified culture chamber at 37 °C with 95% air and 5%
CO2. The cells were trypsinized and resuspended with the DMEM basal medium at a […]
200 μL cell suspension was incubated with NCN (20 μM) at 37 °C for 1 h. Then, the cells were centrifuged (1000 rpm, 3 min), resuspended in DMEM media, and centrifuged again. Next, the cells were lysed with ice-cold methanol (200 μL) and centrifuged (20000 g, 30 min, 4 °C). The content of NCN in the supernatant was determined. […]

Data set [8] deals with NCM460 cells. The experiment in a line: Cell-membrane permeability assay in NCM460 cells. It counts as in vitro ADME.
Data set [9] has as its target CYP3A4 (Homo sapiens, UniProt P08684). Also noted: endogenous in cells; host or cells: Hep3B. As to conditions: cited from earlier work; for Km: CYP3A4, previously reported probe.
The test system of data set [10] is human liver microsomes (HLMs). The experiment in a line: Oxidative metabolism of candidate substrates in HLMs (fluorescent product formation). As to conditions: for fluorescence activation following oxidative metabolism: 30 min.
Data set [11] concerns human liver microsomes (HLMs).
Setting [12] is: KCZ 50 mg kg^−1 versus control, after oral NCN.

T2 sequence (P08183 whole entry): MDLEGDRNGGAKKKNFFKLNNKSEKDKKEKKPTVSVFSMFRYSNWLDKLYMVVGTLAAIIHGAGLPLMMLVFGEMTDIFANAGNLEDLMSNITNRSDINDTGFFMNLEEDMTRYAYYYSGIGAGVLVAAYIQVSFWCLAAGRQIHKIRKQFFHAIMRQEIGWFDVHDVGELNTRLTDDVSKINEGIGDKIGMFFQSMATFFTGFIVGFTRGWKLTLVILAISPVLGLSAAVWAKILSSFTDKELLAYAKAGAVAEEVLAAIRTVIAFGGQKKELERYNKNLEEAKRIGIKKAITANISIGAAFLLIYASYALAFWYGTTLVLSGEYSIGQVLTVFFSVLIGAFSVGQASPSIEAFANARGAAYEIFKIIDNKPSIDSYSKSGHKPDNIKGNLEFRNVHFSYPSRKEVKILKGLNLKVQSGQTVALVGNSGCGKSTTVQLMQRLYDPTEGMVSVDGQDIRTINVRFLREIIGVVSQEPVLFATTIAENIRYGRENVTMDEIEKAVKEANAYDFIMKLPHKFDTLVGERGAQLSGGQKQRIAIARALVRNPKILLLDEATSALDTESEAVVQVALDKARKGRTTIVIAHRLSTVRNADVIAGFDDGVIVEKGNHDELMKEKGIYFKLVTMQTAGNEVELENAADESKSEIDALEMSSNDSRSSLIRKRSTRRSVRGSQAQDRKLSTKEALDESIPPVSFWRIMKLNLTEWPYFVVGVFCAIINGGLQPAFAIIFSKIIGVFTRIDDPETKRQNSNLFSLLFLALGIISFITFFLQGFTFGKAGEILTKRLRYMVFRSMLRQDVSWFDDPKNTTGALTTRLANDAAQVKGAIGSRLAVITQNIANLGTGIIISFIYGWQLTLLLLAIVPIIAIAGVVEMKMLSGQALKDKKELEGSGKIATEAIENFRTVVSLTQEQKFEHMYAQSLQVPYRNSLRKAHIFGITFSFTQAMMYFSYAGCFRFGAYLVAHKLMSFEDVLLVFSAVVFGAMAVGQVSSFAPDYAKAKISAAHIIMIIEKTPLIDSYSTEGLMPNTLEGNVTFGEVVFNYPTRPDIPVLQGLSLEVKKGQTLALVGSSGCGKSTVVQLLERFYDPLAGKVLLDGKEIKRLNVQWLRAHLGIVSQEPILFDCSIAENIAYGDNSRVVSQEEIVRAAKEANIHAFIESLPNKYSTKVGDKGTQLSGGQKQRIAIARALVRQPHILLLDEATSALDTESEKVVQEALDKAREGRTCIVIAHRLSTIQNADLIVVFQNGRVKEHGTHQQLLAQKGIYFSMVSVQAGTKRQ
Chain of CYP3A4 (P08684 whole entry): as the sequence (P08684 whole entry) above

Turning to `O=c1ccc2ccc(O)cc2o1` [7-hydroxycoumarin, reference compound], the half-life in data set [1] came out at 0.287 h.

Regarding `Nn1nnc2ccccc21` [ABT, 1-aminobenzotriazole], in data set [2], the “inhibition of NCN 4-hydroxylation” value is “completely blocking”.

Regarding `Cc1ccc(-c2c(-c3nn(C)c4ncnc(N5CC[C@H](N6CCCCC6)C5)c34)cnn2C)cc1` [CYP3cide], the “inhibition of NCN 4-hydroxylation” value in data set [2] is recorded as “completely blocking”.

On to `O=C1c2cccc3c(O)ccc(c23)C(=O)N1CC1CC1` [HNCN, N-cyclopropylmethyl-4-hydroxy-1,8-naphthalimide], for which the cytotoxicity result in data set [3] was “minimal cytotoxicity”. In data set [4], the P-gp substrate result is “non-substrates of P-gp” and the “intracellular level in the presence of verapamil” value (shortened to “intracellular level”) is listed as “unchanged”. Moreover, in data set [5], the “pH range of stable fluorescence signals” value was 7.0–11.0. Besides, in data set [1], the half-life amounted to 1.36 h. Further, in data set [6] (control group (CMC-Na)), the AUC(0-inf) came out at 961 ng·h/mL, the Cmax is 101 ng/mL and the half-life is 1.77 h. Moreover, in data set [6] (with KCZ 50 mg kg^−1 i.g.), the AUC(0-inf) was 245 ng·h/mL, the Cmax is 32 ng/mL and the half-life is 2.88 h. Moreover, in data set [6] (setting [12]), the “decrease of Cmax by KCZ” value was 3.16 fold and the “reduction of AUC(0-inf) by KCZ” value is recorded as 3.92 fold.

The Km is the concentration of substrate that gives half-maximal velocity. On to `CCN1C(=O)c2cccc3cccc(c23)C1=O` [NEN, N-ethyl-1,8-naphthalimide, reference compound], for which, in data set [4], the P-gp substrate result is given as “Yes”. For the same compound, the “intracellular level” value in data set [4] is reported as “significantly enhanced”. For the same compound, the Cell-membrane penetration in data set [7] was 2.29%; in [8] it was 0.99%. Further, the Km in data set [9] (ref Ning et al. 2019) is 59.8 µM. In data set [9] (previously reported probe, ref Ning et al. 2019), the Vmax is listed as 2.18 nmol/min/nmol.

In the case of `O=C1c2cccc3cccc(c23)C(=O)N1CC1CCC1` [Probe 6], in [10], the “fluorescence activation following oxidative metabolism” value is recorded as “noticeable fluorescence activation”. For the same compound, in data set [11], the metabolites generated entry was “multiple metabolites”.

With `O=C1c2cccc3cccc(c23)C(=O)N1Cc1ccco1` [Probe 15], in data set [10], the metabolites generated result was “multiple metabolites” and the “fluorescence activation following oxidative metabolism” value is “noticeable fluorescence activation”.

For the compound `O=C1c2cccc3cccc(c23)C(=O)N1Cc1ccc(F)cc1` [Probe F8, N-(4-fluorobenzyl)-1,8-naphthalimide, reference compound], in data set [4], the P-gp substrate result is “Yes” and the “intracellular level” value was “significantly enhanced”. Moreover, the Cell-membrane penetration in [7] came to 4.82%. Besides, the Cell-membrane penetration in data set [8] came to 2.09%. Further, in data set [9] (ref He et al. 2023), the Km is 0.36 µM. For the same compound, in data set [9] (previously reported probe, ref He et al. 2023), the Detection limit is 0.1 nM.

`CC(C)c1nc(CN(C)C(=O)N[C@H](C(=O)N[C@@H](Cc2ccccc2)C[C@H](O)[C@H](Cc2ccccc2)NC(=O)OCc2cncs2)C(C)C)cs1` [ritonavir, reference compound]: the cytotoxicity entry in [3] is on record as “minimal cytotoxicity”.
